From ChEMBL document CHEMBL1201862, “PubChem BioAssay data set” (2004)
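1) Cells in 96-well plates. 2) Compound, 48 h, 5 concentrations. 3) Linear interpolation between surrounding doses. 4) Unreached endpoint = highest concentration. GI50 marks 50% less growth.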 Calls of active or inactive are those of the source. Cut-off read from the data, not from the text of the source: active = GI50 up to about 1.1 µM and inactive = higher.

Tests used:
Experiment in all cases: NCI-60 cell line screen, 48 h
[1] = test system: DU-145
[2] = test system: UACC-62
[3] = test system: RPMI-8226
[4] = test system: Hs-578T
[5] = test system: SF-295
[6] = test system: ACHN
[7] = test system: SF-539
[8] = test system: MDA-MB-435
[9] = test system: SNB-75
[10] = test system: NCI-H226
[11] = test system: EKVX
[12] = test system: NCI/ADR-RES
[13] = test system: SNB-19
[14] = test system: HOP-62
[15] = test system: IGROV-1
[16] = test system: HCT-15
[17] = test system: RXF 393
[18] = test system: SK-MEL-5
[19] = test system: M19-MEL

Structure (SMILES)	GI50 [1]	GI50 [2]	GI50 [3]	GI50 [4]	GI50 [5]	GI50 [6]	GI50 [7]	GI50 [8]	GI50 [9]	GI50 [10]	GI50 [11]	GI50 [12]	GI50 [13]	GI50 [14]	GI50 [15]	GI50 [16]	GI50 [17]	GI50 [18]	GI50 [19]
N=c1oc2ccccc2cc1-c1nc2ccccc2c(=O)[nH]1	> 100 µM (inactive)	27.8 µM (inactive)	> 100 µM (inactive)	23.2 µM (inactive)	32.7 µM (inactive)	22.1 µM (inactive)	60.4 µM (inactive)	> 100 µM (inactive)	2.72 µM (inactive)	29.7 µM (inactive)	35.6 µM (inactive)	72.6 µM (inactive)	30.1 µM (inactive)	22.7 µM (inactive)	6 µM (inactive)	78.2 µM	31.4 µM (inactive)	> 100 µM (inactive)	–
CC(C)(C)n1nc(C2CC2)cc1NC(=O)Nc1ccc(Cl)cc1	> 100 µM (inactive)	> 100 µM (inactive)	> 100 µM (inactive)	> 100 µM (inactive)	> 100 µM (inactive)	> 100 µM (inactive)	> 100 µM (inactive)	> 100 µM (inactive)	78 µM (inactive)	> 100 µM (inactive)	> 100 µM (inactive)	> 100 µM (inactive)	> 100 µM (inactive)	> 100 µM (inactive)	> 100 µM (inactive)	> 100 µM	> 100 µM (inactive)	> 100 µM (inactive)	–
CC(C)(C)[Si](C)(C)OCC1CCC(n2cnc3c(NC(=O)c4ccccc4)ncnc32)O1 (stereo not drawn)	19.4 µM (inactive)	14 µM (inactive)	33 µM (inactive)	14 µM (inactive)	18.2 µM (inactive)	19.2 µM (inactive)	18.3 µM (inactive)	15.8 µM (inactive)	10.4 µM (inactive)	15.1 µM (inactive)	17.6 µM (inactive)	16.6 µM (inactive)	18.9 µM (inactive)	22 µM (inactive)	18.1 µM (inactive)	18.6 µM	22 µM (inactive)	11.5 µM (inactive)	–
CC(=O)OCC(OC(C)=O)C(OC(C)=O)C(OC(C)=O)C(C=NN(C(C)=O)S(=O)(=O)c1ccc(/C=C2\NC(=O)N(C)C2=O)cc1)OC(C)=O (stereo not drawn)	29.5 µM (inactive)	10.3 µM (inactive)	18.5 µM (inactive)	25.3 µM (inactive)	42.8 µM (inactive)	37.4 µM (inactive)	26.7 µM (inactive)	33.1 µM (inactive)	33.7 µM (inactive)	22.8 µM (inactive)	23.2 µM (inactive)	73.3 µM (inactive)	38.2 µM (inactive)	26.3 µM (inactive)	18.8 µM (inactive)	21.3 µM	13.4 µM (inactive)	29.6 µM (inactive)	–
Clc1ccc(CCN2CCOCC2)c(Cl)c1	–	92.5 µM (inactive)	> 100 µM (inactive)	–	> 100 µM (inactive)	> 100 µM (inactive)	> 100 µM (inactive)	–	17.6 µM (inactive)	–	> 100 µM (inactive)	–	> 100 µM (inactive)	> 100 µM (inactive)	> 100 µM (inactive)	> 100 µM	12.5 µM (inactive)	> 100 µM (inactive)	> 100 µM (inactive)
CC(=O)N1CCN(C23OC4(N5CCN(C(C)=O)CC5)C5C6CC(C7C6C4C72)C53)CC1 (stereo not drawn)	> 100 µM (inactive)	> 100 µM (inactive)	> 100 µM (inactive)	> 100 µM (inactive)	> 100 µM (inactive)	> 100 µM (inactive)	> 100 µM (inactive)	> 100 µM (inactive)	> 100 µM (inactive)	> 100 µM (inactive)	> 100 µM (inactive)	> 100 µM (inactive)	> 100 µM (inactive)	> 100 µM (inactive)	> 100 µM (inactive)	> 100 µM	> 100 µM (inactive)	> 100 µM (inactive)	–
Cc1c2c(C#N)nccc2c(C)c2c1c1ccccc1n2Cc1ccccc1	> 100 µM (inactive)	> 100 µM (inactive)	> 100 µM (inactive)	88.5 µM (inactive)	> 100 µM (inactive)	> 100 µM (inactive)	> 100 µM (inactive)	> 100 µM (inactive)	57.8 µM (inactive)	> 100 µM (inactive)	3.79 µM (inactive)	> 100 µM (inactive)	> 100 µM (inactive)	> 100 µM (inactive)	> 100 µM (inactive)	> 100 µM	> 100 µM (inactive)	> 100 µM (inactive)	–
O=[N+]([O-])c1cccc2nc3ccccc3c(NCCCN3CCCCC3)c12	< 0.01 µM (active)	0.0151 µM (active)	< 0.01 µM (active)	0.0385 µM (active)	0.0146 µM (active)	0.0139 µM (active)	0.0163 µM (active)	0.0106 µM (active)	0.0205 µM (active)	0.0169 µM (active)	< 0.01 µM (active)	0.418 µM (active)	0.0233 µM (active)	0.0125 µM (active)	< 0.0104 µM (active)	0.0158 µM	0.0101 µM (active)	< 0.011 µM (active)	–
COc1cc(-c2oc3c(OC)c(O)cc(O)c3c(=O)c2OC)ccc1O	7.06 µM (inactive)	3.61 µM (inactive)	4.09 µM (inactive)	1.84 µM (inactive)	17.5 µM (inactive)	3.99 µM (inactive)	5.47 µM (inactive)	7.35 µM (inactive)	4.02 µM (inactive)	12.9 µM (inactive)	21.8 µM (inactive)	10.8 µM (inactive)	41.4 µM (inactive)	3 µM (inactive)	3.09 µM (inactive)	3.67 µM	3.73 µM (inactive)	6.31 µM (inactive)	–
COC(=O)C1=C(C)NC(=O)N2[C@@H](CCOCc3ccccc3)CC[C@@H]12	> 50 µM (inactive)	> 50 µM (inactive)	> 50 µM (inactive)	> 50 µM (inactive)	> 50 µM (inactive)	> 50 µM (inactive)	> 50 µM (inactive)	> 50 µM (inactive)	25 µM (inactive)	> 50 µM (inactive)	> 50 µM (inactive)	> 50 µM (inactive)	> 50 µM (inactive)	> 50 µM (inactive)	> 50 µM (inactive)	> 50 µM	13.1 µM (inactive)	> 50 µM (inactive)	–
C=CCNC(=O)NC(=O)CSC1=NC(=O)C2(NN1)c1ccccc1-c1ccccc12	> 10 µM (inactive)	> 10 µM (inactive)	> 10 µM (inactive)	9.51 µM (inactive)	> 10 µM (inactive)	> 10 µM (inactive)	> 10 µM (inactive)	> 10 µM (inactive)	> 10 µM (inactive)	> 10 µM (inactive)	> 10 µM (inactive)	> 10 µM (inactive)	> 10 µM (inactive)	> 10 µM (inactive)	> 10 µM (inactive)	> 10 µM	> 10 µM (inactive)	> 10 µM (inactive)	–
CCCCCCCCCCCCCCCCCCNc1nc(=O)n(C2CC(O)C(COP(=O)(O)O)O2)cc1F (stereo not drawn)	> 57.4 µM (inactive)	> 78.2 µM (inactive)	> 63.2 µM (inactive)	> 100 µM (inactive)	> 80.7 µM (inactive)	10.8 µM (inactive)	15 µM (inactive)	> 100 µM (inactive)	> 100 µM (inactive)	38.9 µM (inactive)	99.5 µM (inactive)	> 35.6 µM (inactive)	> 100 µM (inactive)	81.7 µM (inactive)	> 74.8 µM (inactive)	> 100 µM	> 80 µM (inactive)	> 100 µM (inactive)	–
NC(=O)C(=CNC(=S)Nc1ccc(S(=O)(=O)Nc2ccccn2)cc1)C(N)=O	> 100 µM (inactive)	> 100 µM (inactive)	> 100 µM (inactive)	> 100 µM (inactive)	> 100 µM (inactive)	> 100 µM (inactive)	> 100 µM (inactive)	> 100 µM (inactive)	> 100 µM (inactive)	> 100 µM (inactive)	> 100 µM (inactive)	55.3 µM (inactive)	> 100 µM (inactive)	> 100 µM (inactive)	> 100 µM (inactive)	> 78 µM	> 100 µM (inactive)	> 100 µM (inactive)	–
CN(CCCCN(C)CCc1ccc(Cl)c(Cl)c1)CCCCN1CCCC1	2.73 µM (inactive)	1.93 µM (inactive)	0.649 µM (active)	0.977 µM (active)	1.83 µM (inactive)	1.91 µM (inactive)	1.01 µM (active)	0.465 µM (active)	1.73 µM (inactive)	2.26 µM (inactive)	1.63 µM (inactive)	3.23 µM (inactive)	2.26 µM (inactive)	1.83 µM (inactive)	2.2 µM (inactive)	1.69 µM	1.32 µM (inactive)	0.902 µM (active)	–
CCN(CC)CCN(C)c1ccc(CO)c2c1c(=O)c1ccccc1[s+]2[O-] (stereo not drawn)	14.6 µM (inactive)	7.06 µM (inactive)	2.83 µM (inactive)	12 µM (inactive)	13.6 µM (inactive)	11.1 µM (inactive)	1.82 µM (inactive)	2 µM (inactive)	14.8 µM (inactive)	17.7 µM (inactive)	5.96 µM (inactive)	1.74 µM (inactive)	13.2 µM (inactive)	4.52 µM (inactive)	16.9 µM (inactive)	4.2 µM	12 µM (inactive)	2.45 µM (inactive)	–
COC(=O)C12C(=O)O[C@H](C)C1(O)C(C)C(=O)N2C (stereo partly drawn)	–	> 100 µM (inactive)	> 100 µM (inactive)	–	> 100 µM (inactive)	–	> 100 µM (inactive)	–	–	–	> 100 µM (inactive)	–	> 100 µM (inactive)	> 100 µM (inactive)	> 100 µM (inactive)	> 100 µM	> 100 µM (inactive)	> 100 µM (inactive)	> 100 µM (inactive)
